# Source: patent US6518272B2, “Cycloalkyl-substituted aryl-piperazines, piperidines and tetrahydropyridines as serotonergic agents” (Wyeth, priority 1998, dated 2003)
# Columns and labels:
# depression = conditions: in vivo; cited from earlier work
# human 5-HT1A receptor [1] = target: T1, human 5-HT1A receptor (Homo sapiens, UniProt P08908); assay: Displacement of [3H] 8-OHDPAT from the 5-HT1A receptor in transfected CHO cells; type: binding
# T1 construct: expressed in transfected cells; host or cells: CHO cells (stably transfected)
# T1 sequence (P08908 1-422): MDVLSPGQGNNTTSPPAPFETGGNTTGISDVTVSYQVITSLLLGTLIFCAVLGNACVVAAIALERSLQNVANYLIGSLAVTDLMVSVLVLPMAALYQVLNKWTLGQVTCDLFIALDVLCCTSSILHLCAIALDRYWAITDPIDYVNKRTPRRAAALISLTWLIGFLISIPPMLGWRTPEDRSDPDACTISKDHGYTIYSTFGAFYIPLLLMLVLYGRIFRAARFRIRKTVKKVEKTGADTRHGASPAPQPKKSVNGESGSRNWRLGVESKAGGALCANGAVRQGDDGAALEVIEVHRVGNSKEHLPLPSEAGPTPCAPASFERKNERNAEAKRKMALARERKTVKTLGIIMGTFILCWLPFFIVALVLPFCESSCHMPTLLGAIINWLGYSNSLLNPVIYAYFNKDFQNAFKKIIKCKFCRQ
# From the text: Affinity for the serotonin 5-HT1A receptor was established by assaying the test compound's ability to displace [^3H] 8-OHDPAT from its binding site on the receptor complex in CHO cells stably transfected with the human 5-HT1A receptor following the procedure described by J. Dunlop, Y. Zhang, D. Smith and L. Schechter (Eur. J. Pharmacol., submitted; variation of a procedure described by J. Zgombick et al., Naunyn-Schmiedeberg's Arch. Pharmacol., 354, 226-236 (1996)).
# human 5-HT1A receptor [2] = target: T1, human 5-HT1A receptor; assay: Agonist activity: inhibition of forskolin-stimulated cAMP accumulation in transfected CHO cells; type: cell-based; conditions: CHO cells with human 5-HT1A receptor
# From the text: (§1) Methods, 40, 47-55 (1998); variation of a procedure described by J. Zgombick et al., Naunyn-Schmiedeberg's Arch. Pharmacol., 354, 226-236 (1996)].
# human 5-HT1A receptor [3] = target: T1, human 5-HT1A receptor; assay: Antagonist activity: antagonism of 8-OHDPAT inhibition of forskolin-stimulated cAMP accumulation in transfected CHO cells; type: cell-based; conditions: CHO cells with human 5-HT1A receptor
# From the text: as §1
# [4] = tested on: motion sickness and xylazine- and cis-platinin-induced vomiting; conditions: cited from earlier work
# LTP = conditions: cited from earlier work
# [5] = tested on: impairment of spatial learning caused by intrahippocampal scopolamine; conditions: cited from earlier work
# [6] = tested on: cognitive deficits induced by fornix lesions; conditions: marmosets; cited from earlier work
# antidepressant response = conditions: clinical trials; co-administration with the SSRI's paroxetine and fluoxetine; cited from earlier work
# PC3 cell line = conditions: athymic nude mice; cited from earlier work
# [7] = tested on: human prostate tumor cell lines PC3, DU-145 and LNCaP; conditions: PC3, DU-145 and LNCaP in vitro; cited from earlier work
# [8] = displacement of [3H] 8-OHDPAT, CHO cells stably transfected with the human 5-HT1A receptor, read-out: 5-HT1A Affinity (IC50)
Compound,IC50 (human 5-HT1A receptor [1]; [8]),IC50 (human 5-HT1A receptor [3]),other results
"O=C1CC2(CCCC2)CC(=O)N1CCCCN1CCN(c2ncccn2)CC1 [Buspirone, buspirone]",–,–,antidepressant activity (depression): weak antidepressant activity
"COc1ccccc1N1CCN(C[C@@H](CC2CCCCC2)NC(=O)C2CCCCC2)CC1 [Example 1, Cyclohexanecarboxylic Acid {(1R)-1-Cyclohexylmethyl-2-[4-(2-methoxyphenyl)-piperazin-1-yl]-ethyl}-amide]",0.57 nM,–,EC50 (human 5-HT1A receptor [2]): 0.5 nM
"COc1ccccc1N1CCN(C[C@@H](CC2CCCCC2)N(C)C(=O)C2(C)CCCCC2)CC1 [Example 4, 1-Methyl-cyclohexanecarboxylic Acid {(1R)-1-Cyclohexylmethyl-2-[4-(2-methoxyphenyl)-piperazin-1-yl]-ethyl}-methyl-amide]",2.82 nM,10.2 nM,–
CN(C(=O)C1CCCCC1)[C@H](CC1CCCCC1)CN1CCN(c2cccc3c2OCCO3)CC1 [Example 5],2.37 nM,4.6 nM,–
"CN(C(=O)C1(C)CCCCC1)[C@H](CC1CCCCC1)CN1CCN(c2cccc3c2OCCO3)CC1 [Example 6, 1-Methyl-cyclohexanecarboxylic Acid {(1R)-1-Cyclohexylmethyl-2-[4-(2,3-dihydro-benzo[1,4]dioxin-5-yl)-piperazin-1-yl]-ethyl}-methyl-amide]",6.92 nM,7.3 nM,–
"CN(C(=O)C1CCCCC1)[C@H](CC1CCCCC1)CN1CCN(c2cccc3[nH]ccc23)CC1 [Example 7, Cyclohexanecarboxylic Acid {(1R)-1-Cyclohexylmethyl-2-[4-(1H-indol-4-yl)-piperazin-1-yl]-ethyl}-methyl-amide]",8.84 nM,10.5 nM,–
"COc1ccccc1N1CCN(C[C@@H](CC2CCCCC2)NC=O)CC1 [Example 9, N-{(1R)-1-Cyclohexylmethyl-2-[4-(2-methoxyphenyl)-piperazin-1-yl]-ethyl}-formamide]",1.49 nM,17.3 nM,–
"O=C(N[C@H](CC1CCCCC1)CN1CCN(c2ncccn2)CC1)C1CCCCC1 [Example 10, Cyclohexanecarboxylic Acid {(1R)-1-Cyclohexylmethyl-2-[4-(pyrimidin-2-yl)-piperazin-1-yl]-ethyl}-amide]",0.71 nM,–,EC50 (human 5-HT1A receptor [2]): 1.3 nM
"O=C(N[C@H](CC1CCCCC1)CN1CCN(c2ncccn2)CC1)C1CCC1 [Example 11, Cyclobutane Carboxylic Acid {(1R)-1-Cyclohexylmethyl-2-[4-(pyrimidin-2-yl)-piperazin-1-yl]-ethyl}-amide]",2.4 nM,–,EC50 (human 5-HT1A receptor [2]): 21.7 nM
"COc1cccc(N2CCN(C[C@H](CC3CCCCC3)NC(=O)C3CCCCC3)CC2)n1 [Example 12, Cyclohexane Carboxylic Acid {(1S)-1-Cyclohexylmethyl-2-[4-(6methoxypyridin-2-yl)-piperazin-1-yl]-ethyl}-amide]",4.14 nM,–,EC50 (human 5-HT1A receptor [2]): 14.8 nM
"O=C(N[C@H](CC1CCCCC1)CN1CCN(c2nc3ccccc3s2)CC1)C1CCCCC1 [Example 13, Cyclohexanecarboxylic Acid {(1R)-1-Cyclohexylmethyl-2-[4-(benzothiazol-2-yl)-piperazin-1-yl]-ethyl}-amide]",2.96 nM,–,EC50 (human 5-HT1A receptor [2]): 4.8 nM
"COc1ccccc1C1CCN(C[C@@H](CC2CCCCC2)NC(=O)C2CCCCC2)CC1 [Example 15, Cyclohexanecarboxylic Acid {(1R)-1-Cyclohexylmethyl-2-[4-(2-methoxyphenyl)-piperidin-1-yl]-ethyl}-amide]",1.08 nM,–,EC50 (human 5-HT1A receptor [2]): 3.9 nM
"COc1ccccc1C1CCN(C[C@@H](CC2CCCCC2)NC(=O)C2(C)CCCCC2)CC1 [Example 16, 1-Methyl-cyclohexanecarboxylic acid {(1R)-1-cyclohexylmethyl-2-[4-(2-methoxyphenyl)-piperidin-1-yl]-ethyl}-amide]",5.97 nM,46 nM,–
"COc1ccccc1C1CCN(C[C@@H](CC2CCCCC2)N(C)C(=O)C2CCCCC2)CC1 [Example 17, Cyclohexanecarboxylic Acid {(1R)-1-Cyclohexylmethyl-2-[4-(2-methoxyphenyl)-piperidin-1-yl]-ethyl}-methyl-amide]",1.69 nM,91.5 nM,–
"COc1ccccc1C1CCN(C[C@@H](CC2CCCCC2)N(C)C(=O)C2(C)CCCCC2)CC1 [Example 18, 1-Methyl-cyclohexanecarboxylic Acid {(1R)-1-Cyclohexylmethyl-2-[4-(2-methoxypheniyl)-piperidin-1-yl]-ethyl}-methyl-amide]",5.33 nM,97.5 nM,–
"COc1ccccc1C1CCN(C[C@@H](CC2CCCCC2)NC(=O)C(C)(C)C)CC1 [Example 19, N-{(1R)-1-Cyclohexylmethyl-2-[4-(2-methoxyphenyl)-piperidin-1-yl]-ethyl}-2,2-dimethyl-propionamide]",2.19 nM,40 nM,–
"COc1ccccc1C1=CCN(C[C@@H](CC2CCCCC2)NC(=O)C2(C)CCCCC2)CC1 [Example 21, 1-Methyl-cyclohexanecarboxylic Acid {(1R)-1-Cyclohexylmethyl-2-[4-(2-methoxyphenyl)-3,6-dihydro-2H-pyridin-1-yl]-ethyl}-amide]",–,45.5 nM,IC50 (human 5-HT1A receptor [1]): 2.75 nM
O=C(NCCN1CCN(c2cccc3c2OC[C@H](CO)O3)CC1)c1ccc(F)cc1 [Flesinoxan],–,–,antiemetic activity in animal models [4]: particularly active
COc1ccccc1N1CCN(CCCCN2C(=O)c3ccccc3C2=O)CC1 [NAN-190],–,–,effect on LTP (LTP): augment LTP
COc1ccccc1N1CCN(CC(C(=O)NC(C)(C)C)c2ccccc2)CC1 (stereo not shown) [WAY-100135],–,–,effect on impairment of spatial learning [5]: prevented the impairment of spatial learning
COc1ccccc1N1CCN(CCN(C(=O)C2CCCCC2)c2ccccn2)CC1 [WAY-100635],–,–,effect on cognitive deficits induced by fornix lesions [6]: reversed the cognitive deficits
CC(C)NCC(O)COc1cccc2[nH]ccc12 (stereo not shown) [pindolol],–,–,median time needed to achieve a sustained antidepressant response (antidepressant response): significantly reduced the median time
pindobind,–,–,growth of PC3 cell line in vivo (PC3 cell line): inhibited the growth; antineoplastic activity in vitro [7]: antineoplastic activity
